Reference: a melting point compilation (Tetko et al.; mined from patent text by program, amines drawn as free bases though some values may be those of a salt)

SMILES	melting point
CC1=CC(N)=NC(c2ccccc2C(F)(F)F)N1c1n[nH]c2ccccc12 (configuration not stated)	235 to 237 °C
COC(=O)/C(=C/c1ccc(OC)c(OC2CCCC2)c1)CC(=O)O	119 to 121 °C
CCCCCCCCCCOc1cc(C(=O)O)c(OCCCCCCCCCC)cc1C(=O)O	136 to 137 °C
CCCOc1ccccc1-c1nc2nc(OC)nnc2c(=O)[nH]1	234 to 235 °C
CN(CC(=O)C(Cc1ccccc1)NC(=O)c1ccccc1)C(=O)OCc1ccccc1 (configuration not stated)	140 to 141 °C
CCCS(=O)(=O)N=C(N[N+](=O)[O-])SC	91 to 93 °C
O=C(c1ccc(Cl)cc1)c1ccc(-n2ccnc2)nc1	155 to 156 °C
O=C(Nc1ccc(Cl)nc1)N1CCc2ccccc2CC1	170 to 172 °C
O=S(=O)(CCCCl)c1ccc(Cl)cc1	69 to 72 °C
COc1cc(-n2c(-c3ccc(SC)cc3)nc(SC)c(C#N)c2=O)cc(OC)c1OC	192 to 195 °C
CC1(C)CC(=O)C2=C(C1)NC1=C(C(=O)CC(C)(C)C1)C2c1ccc(Cl)c(OCc2ccccc2)c1	243 to 244 °C
CC(C)c1cccc(C(C)C)c1OCC(=O)O	84 to 87 °C
CC(C)(C)OC(=O)NCC(=O)Nc1cccc(I)c1	126 to 128 °C
Nc1nc(N)c(-c2ccc(Cl)cc2Cl)c(COCc2ccccc2)n1	171 to 172 °C
C#Cc1ccc(C#Cc2ccncc2)s1	134 to 136 °C
CCOC(=O)c1ncn2c1CN(Cc1ccc(OC)cc1OC)C(=O)c1cc(F)ccc1-2	159 to 160 °C
CCCN(CCC)Cc1csc(-c2ncn3c2CN(C)C(=O)c2cc(F)ccc2-3)n1	134 to 136 °C
NC(CNCCO)(CC(=O)O)c1ccccc1 (configuration not stated)	140 to 143 °C
COc1cccc(C(CNC(=O)Cc2c(Cl)cncc2Cl)c2ccccc2)c1 (configuration not stated)	142 to 143 °C
CC(=O)CC(=O)NCC1(C)CC(NC(=O)CC(C)=O)CC(C)(C)C1 (configuration not stated)	144 to 147 °C
CCC[C@](CCO)(CCc1ccccc1)OCOc1ccc(-c2ccccc2)cc1	49 to 53 °C
CC1(C)CCC(C)(C)c2cc(-c3cc(-c4ccc(C(=O)O)cn4)ccc3-c3ccccc3)ccc21	105 to 107 °C
CC(=O)Nc1ccc(NC(=O)C=C2CC(C(=O)O)Nc3cc(Cl)cc(Cl)c32)cc1 (racemic)	185 °C

SMILES	melting point
O=S1(=O)OCCN1Cc1ccccc1Cl	61 to 62.5 °C
O=C(c1ccccn1)c1cnn2c(-c3cccc(C(F)(F)F)c3)ccnc12	166 to 167 °C
COC1Nc2c(ccc(C)c2OC(C)=O)C(=O)N2CCCC12 (configuration not stated)	147 to 150 °C
Clc1ccc(-c2cn([C@H]3CN4CCC3CC4)nn2)cc1	144 °C
NCCCCCCC(=O)Nc1cccc(C(=O)NCCC(=O)O)c1	236 °C
NC(=S)NN=C(CCCCl)c1cccs1	120 to 122 °C
COCOc1ccc(C=CC(=O)c2ccc(OCc3ccccc3)cc2O)c(OCc2ccccc2)c1	147 to 148 °C
COc1cc(C2CCN(C(=O)C3CCN3)CC2)ccc1Nc1ncc2ccc(-c3ccccc3OC)n2n1 (configuration not stated)	103 to 112 °C
CC(=O)OCC1OC(SCC#N)C(OC(C)=O)C(OC(C)=O)C1OC(C)=O (configuration not stated)	97 °C
COc1ccc(S(=O)(=O)C(CC=C(C)C)(Cc2ccc(OCCN3CCOCC3)cc2)C(=O)NO)cc1 (configuration not stated)	92 °C
CCN1CCc2nc(N3CCNCC3)ncc2C1=O	205 to 210 °C
O[C@@H]1c2ccccc2CN2CCC[C@@H]12 (relative stereo)	131 to 133 °C
O=c1[nH]c2ccccc2n1CCCCN1CCC(O)(c2ccc(Cl)cc2)CC1	161 °C
Cc1ccc(C(=O)Nc2cccc(C(F)(F)F)c2)cc1/C=C/n1cnc2c(NC3CC3)ncnc21	201 °C
O=C1NC(=O)C(O)(c2c[nH]c3ccc(Br)cc23)C(=O)N1	> 250 °C
CCCCOc1ccccc1-c1ncc(-c2nnn[nH]2)c(=O)[nH]1	244 to 247 °C
CN(C)C(=O)N[C@H]1CC[C@H](CCN2CCN(c3cccc(Cl)c3Cl)CC2)CC1	212 to 214 °C
NC(=O)c1cc(Br)c(O)c(Br)n1	261 to 266 °C
COC(=O)CC[C@H](NC(=O)c1ccc(CCC2CNc3nc(NC(=O)C(C)(C)C)nc(O)c3C2)s1)C(=O)OC (some centres not stated)	152 to 160 °C
Cc1cccc(NC(=O)NC2N=C(c3ccccc3F)c3ccccc3N(Cc3ccc4ccccc4n3)C2=O)c1 (racemic)	224 to 225 °C
CS(=O)(=O)c1cccc(NC(=O)c2cnn3c(C(F)(F)F)cc(-c4ccc(OC(F)(F)F)cc4)nc23)c1	245 °C
CCOP(=S)(OCC)OC(=O)/C(=N\OC(C)=O)c1csc(N)n1	128 to 130 °C
Cc1cc(-n2ccnc2)c2cccc(OCc3c(Cl)ccc(S(=O)(=O)N4CCC[C@H]4C(=O)NCCCNC(=O)c4ccc(C=NN)cc4)c3Cl)c2n1	148 °C

SMILES	melting point
COc1ccc(-c2nnsc2-c2ccc(OC)cc2)cc1	80 to 82 °C
CN(C)CC1(c2cccc(C(F)(F)F)c2)CCN(C(=O)CN2CCN(c3ccccc3)CC2)CC1	123 to 124 °C
Cc1ccc(C)c(S(=O)(=O)N(C)CC(O)(CO)c2ccccc2)c1 (configuration not stated)	114 to 115 °C
FC(F)(F)c1ccc2nc(N3CCN(c4ncccc4C(F)(F)F)CC3)n(Cc3ccccc3)c2c1	154 to 157 °C
CC(C)CC(O)(Cn1ccnn1)c1ccccc1 (configuration not stated)	94 to 95 °C
CC(=N)NS(=O)(=O)C=Cc1ccc(Cl)c(Cl)c1	198 °C
COc1ccc2c(ccc3c4cc5c(cc4nnc23)OCO5)c1	258 to 260 °C
O=c1n(CCCC2CCCC2)ccn1-c1ccc(NS(=O)(=O)c2ccc3c(c2)CCC(CNCC(O)c2cccnc2)O3)cc1 (configuration not stated)	90 to 92 °C
Cc1oc(-c2ccccc2)nc1COc1ccc(CCl)cn1	86 to 87 °C
Cc1cc(Nc2ccnc(Nc3ccc(S(=O)(=O)N4CCC(C(O)Cc5ncccc5C)CC4)cc3)n2)ccc1F (configuration not stated)	103 to 104 °C
COc1ccc2cccc(C(CO)CNC(=O)C3CC3)c2c1 (configuration not stated)	153 to 154 °C
CC(C(=O)O)c1ccc(C(=O)c2cccs2)c(Cl)c1 (configuration not stated)	82.5 °C
CN1CCN(c2ccc3nnn(Cc4ccc5ncccc5c4)c3n2)CC1	131 to 133 °C
N#Cc1ccc(C2C3=C(CCCC3)NC3=C2C(=O)CCC3)cc1C(F)(F)F (configuration not stated)	210 to 212 °C
COCCN1CCN(C(=O)c2ccc3n2Cc2ccccc2N(C(=O)c2ccc(-c4ccccc4C(F)(F)F)c(C)c2)C3)CC1	140 to 144 °C
CCc1cccc(CC(=O)O)c1OCCCc1cn(-c2ccc(C(F)(F)F)cn2)nc1C(C)C	155 to 156 °C
NC(=O)c1ncn2c1[C@@H]1CCN1C(=O)c1cc(Cl)ccc1-2	251 to 253 °C
CC1(C)CC(OC(=O)CCC(=O)OC2CC(C)(C)N(OC3CCCCC3)C(C)(C)C2)CC(C)(C)N1OC1CCCCC1	122 to 126 °C
CC(C)(C)N(NC(=O)c1ccccc1)C(=S)c1ccccc1	169 to 171 °C
Cc1ccc(N2CCN(c3c(C)c(C)c4c(c3C)CC(C)(C)O4)CC2)cc1Cl	146 to 148 °C
Cc1ccc(O[C@@H]2CNCC[C@H]2O)cc1C (relative stereo)	98 to 99 °C
O=C(CCc1cccc(Br)c1)c1cnc2sc3c(n12)CCCCC3	77 to 79 °C

Results, then the molecule that gave them:

melting point	SMILES
100 to 102 °C	CC1(C)C2CC[C@]1(C)C(=O)C(C(=O)Nc1cccc([N+](=O)[O-])c1)C2=O (some centres not stated)
209 to 211 °C	Nc1cc(Cl)nc(C(=O)NOCc2ccc(F)cc2)c1Cl
118 to 120 °C	CCOC(=O)C1=Cc2cc(Cl)ccc2N(C)C1C(F)(F)F (configuration not stated)
146 to 147 °C	Cc1cc(C)cc(S(=O)c2cccc(F)c2C#N)c1 (configuration not stated)
163 to 164 °C	COc1ccc(COC(=O)c2cc([N+](=O)[O-])c3ccccc3c2O)cc1
144 to 145 °C	C=C(C)COc1cc(C)c(NC=O)c(C)c1C
85 to 95 °C	COC(=O)c1ccc(S(C)(=O)=O)c(C(=O)NN)c1Cl
> 320 °C	CS(=O)(=O)Nc1ccc(-c2ccc(C(=O)O)c(=O)[nH]2)cc1
315 to 317 °C	Nc1ccc([N+](=O)[O-])cc1-c1cc([N+](=O)[O-])ccc1N
146 to 147 °C	COc1cc2ncnc(N3c4ccccc4CC3CO)c2cc1OC (configuration not stated)
85 to 87 °C	CCOC(=O)CCc1cc(CCC(=O)O)cc(Oc2cccnc2)c1
79 to 81 °C	CCOC(=O)CN1C(=O)COc2cc(F)c([N+](=O)[O-])cc21
200 to 202 °C	CC(=O)NC(C)(C)CNc1c(C)c(C)n2nnnc2c1[N+](=O)[O-]
162 to 163 °C	O=C(O)CN1CCN2c3ccccc3Cc3ccccc3C2C1 (configuration not stated)
191 to 193 °C	COc1cc2c(c3c1OC(C)(C)C3)C(c1cccc(C(N)=O)c1)=NCC2(C)C
163 to 165 °C	CCc1nc2c(N)nc3cccnc3c2n1CCCCCC(=O)N1CCOCC1
82.5 to 83.5 °C	Cc1ccc(S(=O)(=O)N(C)c2ccc(Br)cc2[N+](=O)[O-])cc1
166 to 172 °C	ON=C1COc2cc(OCc3c(F)cccc3F)ccc21
59 to 61 °C	CCCc1c(OCCCCCOc2ccc3nc(CCC(=O)OCC)ccc3c2CCC(=O)OCC)ccc2c1OCCC2=O
123 °C	COC(=O)c1c(SCc2ccc(OC)cc2)ncn1Cc1cc2c(cc1Cl)OCO2
171 °C	CC(C)(C)OC(=O)NCc1nc(C(=O)ON2C(=O)CCC2=O)cs1
128 to 129 °C	CCOC(=O)c1ncc2[nH]c3ccc(Oc4ncccn4)cc3c2c1COC
138 to 139 °C	CCS(=O)c1ccc(N2CC(CNC(C)=S)OC2=O)cc1F (configuration not stated)
144 to 145 °C	COc1ccc(C2(O)OC(=O)C(c3cc(OC)c4c(c3)OCO4)=C2CC2CCCC2)cc1C (configuration not stated)
135 to 136 °C	CCCc1nn(-c2ccc(C(F)(F)F)cn2)cc1CCCOc1ccc(OC)c(CC(=O)O)c1
136 to 138 °C	CCOC(=O)C(=Cc1cccn2cc(-c3ccccc3)nc12)N=[N+]=[N-]
59 to 61 °C	CCOC(=O)CCc1cc(OC)ccc1C(=O)CCCNC(C)=O
176 to 178 °C	CC(C)c1cc(-c2cc(C(=O)O)ccc2S(C)(=O)=O)on1
56.8 to 57.9 °C	Cc1cc(CO)cc([N+](=O)[O-])c1
